Laboratory results published in US20260374773A1, “MULTI-CYCLIC IRAK AND FLT3 INHIBITING COMPOUNDS AND USES THEREOF” (CHILDREN'S HOSPITAL MEDICAL CENTER, priority 2022, published 2026).

Columns and labels:
FLT3 ITD, D835V = target: T1, FLT3 ITD, D835V (Homo sapiens, UniProt P36888, D835V/ITD); assay: DiscoverX KINOMEscan active site-directed competition binding, FLT3 ITD, D835V; conditions: no ATP
T1 sequence (P36888 27-993 D835V): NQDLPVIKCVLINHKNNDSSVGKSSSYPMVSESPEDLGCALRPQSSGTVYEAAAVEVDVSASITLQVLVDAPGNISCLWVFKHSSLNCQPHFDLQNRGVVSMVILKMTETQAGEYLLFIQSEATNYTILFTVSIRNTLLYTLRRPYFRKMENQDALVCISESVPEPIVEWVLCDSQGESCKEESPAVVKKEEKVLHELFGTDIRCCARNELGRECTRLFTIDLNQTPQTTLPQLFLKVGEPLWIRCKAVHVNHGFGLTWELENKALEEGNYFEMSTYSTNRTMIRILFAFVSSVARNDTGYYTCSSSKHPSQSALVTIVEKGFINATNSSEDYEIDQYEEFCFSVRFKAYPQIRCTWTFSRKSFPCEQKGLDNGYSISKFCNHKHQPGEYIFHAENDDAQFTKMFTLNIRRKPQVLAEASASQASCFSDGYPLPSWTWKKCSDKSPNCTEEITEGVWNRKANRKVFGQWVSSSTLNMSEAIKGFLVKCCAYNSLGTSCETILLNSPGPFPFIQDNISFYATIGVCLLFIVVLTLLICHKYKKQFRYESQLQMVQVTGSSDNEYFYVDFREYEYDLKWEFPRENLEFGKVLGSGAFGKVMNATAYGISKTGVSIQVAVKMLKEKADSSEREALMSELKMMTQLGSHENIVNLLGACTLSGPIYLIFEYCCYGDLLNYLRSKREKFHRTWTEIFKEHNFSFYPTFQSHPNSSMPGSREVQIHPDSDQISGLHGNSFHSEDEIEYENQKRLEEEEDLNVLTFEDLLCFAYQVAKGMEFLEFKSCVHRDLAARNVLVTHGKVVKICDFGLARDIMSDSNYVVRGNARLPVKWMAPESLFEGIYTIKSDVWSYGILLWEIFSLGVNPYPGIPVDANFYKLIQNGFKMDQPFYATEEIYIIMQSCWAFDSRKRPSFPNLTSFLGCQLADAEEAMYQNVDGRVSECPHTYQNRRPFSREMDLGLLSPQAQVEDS
From the text: (§1) Kinase binding data were obtained for various exemplary compounds prepared according to Examples 1-8 using the DiscoverX KINOMEscan® active site-directed competition binding site-directed assay protocol described below. […] As a result, the data report thermodynamic interaction affinities (Kd values), rather than IC50 values that are dependent on ATP concentrations. The assay uses a DNA-tagged version of the protein kinase, and an immobilized ligand bound to a solid support. Compounds that directly or indirectly prevent kinase binding to the immobilized ligand reduce the amount of kinase captured on the solid support, which is detected using an ultra-sensitive qPCR method. Affinity constants reported from the assay have been reported to be independent of the immobilized ligand used that is coupled to the solid support (See supplemental information in Fabian, M. A. et. al., (2005) Nat. Biotechnol. 23, 329-336; Wodicka, L. M. et. al., (2010) Chem. Biol. 17, 1241-1249.)
(§2) Kinase-tagged T7 phage strains were prepared in an E. coli host derived from the BL21 strain. E. coli were grown to log-phase and infected with T7 phage and incubated with shaking at 32 °C until lysis. The lysates were centrifuged and filtered to remove cell debris. The remaining kinases were produced in HEK-293 cells and subsequently tagged with DNA for qPCR detection. Streptavidin-coated magnetic beads were treated with biotinylated small molecule ligands for 30 minutes at room temperature to generate affinity resins for kinase assays. The liganded beads were blocked with excess biotin and washed with blocking buffer (SeaBlock (Pierce), 1% BSA, 0.05% Tween 20, 1 mM DTT) to remove unbound ligand and to reduce non-specific binding. […] Test compounds were prepared as 111x stocks in 100% DMSO. Kds were determined using an 11-point 3-fold compound dilution series with three DMSO control points. All compounds for Kd measurements are distributed by acoustic transfer (non-contact dispensing) in 100% DMSO. The compounds were then diluted directly into the assays such that the final concentration of DMSO was 0.9%. All reactions were performed in polypropylene 384-well plates. Each was a final volume of 0.02 mL. The assay plates were incubated at room temperature with shaking for 1 hour and the affinity beads were washed with wash buffer (1×PBS, 0.05% Tween 20). The beads were then re-suspended in elution buffer (1×PBS, 0.05% Tween 20, 0.5 μM nonbiotinylated affinity ligand) and incubated at room temperature with shaking for 30 minutes. The kinase concentration in the eluates was measured by qPCR. Binding constants (Kds) were calculated with a standard dose-response curve using the Hill equation. The Hill Slope was set to −1. Curves were fitted using a non-linear least square fit with the Levenberg-Marquardt algorithm.
as §1, with “9-12” for “1-8”
(§3) Kinase-tagged T7 phage strains were prepared in an E. coli host derived from the BL21 strain. […]

FLT3 ITD, F691L = target: T2, FLT3 ITD, F691L (Homo sapiens, UniProt P36888, F691L/ITD); assay: DiscoverX KINOMEscan active site-directed competition binding, FLT3 ITD, F691L; conditions: no ATP
T2 construct: F691L gatekeeper
T2 sequence (P36888 27-993 F691L): T1 sequence (P36888 27-993 D835V)
From the text: as §1, §2
as §1, with “9-12” for “1-8”
as §3

Compound	Kd (FLT3 ITD, D835V; Table 19) [nM]	Kd (FLT3 ITD, F691L; Table 19) [nM]	Kd (FLT3 ITD, D835V; Table 13) [nM]	Kd (FLT3 ITD, F691L; Table 13) [nM]
COc1cn2ncc(-c3ccnc(N[C@H]4CNCC[C@@H]4F)n3)c2nc1C1CC1 [Compound 7a, 4-(5-cyclopropyl-6-methoxypyrazolo[1,5-a]pyrimidin-3-yl)-N-((3S,4S)-4-fluoropiperidin-3-yl)pyrimidin-2-amine]	< 0.17	< 0.17		
COc1cn2ncc(-c3cncc(N[C@H]4CNCC[C@@H]4F)n3)c2nc1C1CC1 [Compound 12a, 6-(5-cyclopropyl-6-methoxypyrazolo[1,5-a]pyrimidin-3-yl)-N-((3S,4S)-4-fluoropiperidin-3-yl)pyrazin-2-amine]	< 0.17	< 0.17		
COc1cn2ncc(-c3nc(N[C@@H]4CCCNC4)ncc3F)c2nc1C1CC1 [Compound 14a, (R)-4-(5-cyclopropyl-6-methoxypyrazolo[1,5-a]pyrimidin-3-yl)-5-fluoro-N-(piperidin-3-yl)pyrimidin-2-amine]	< 0.17	< 0.17		
COc1cn2ncc(-c3nc(N[C@H]4CNCC[C@@H]4F)ncc3F)c2nc1C1CC1 [Compound 15a, 4-(5-cyclopropyl-6-methoxypyrazolo[1,5-a]pyrimidin-3-yl)-5-fluoro-N-((3S,4S)-4-fluoropiperidin-3-yl)pyrimidin-2-amine]	< 0.17	< 0.17		

Other lines, results leading:

Kd (FLT3 ITD, D835V; Table 19) [nM]	Kd (FLT3 ITD, F691L; Table 19) [nM]	Kd (FLT3 ITD, D835V; Table 13) [nM]	Kd (FLT3 ITD, F691L; Table 13) [nM]	Compound
< 0.17	< 0.17			COc1cn2ncc(-c3nc(N[C@H]4CNCC[C@@H]4F)ncc3F)c2nc1C(C)(C)O [Compound 6a, 2-(3-(5-fluoro-2-(((3S,4S)-4-fluoropiperidin-3-yl)amino)pyrimidin-4-yl)-6-methoxypyrazolo[1,5-a]pyrimidin-5-yl)propan-2-ol]
		< 0.17	< 0.17	COc1cn2ncc(-c3nc(N[C@H]4CNCC[C@@H]4F)c(C#N)cc3F)c2nc1C1CC1 [Compound 7, 6-(5-cyclopropyl-6-methoxypyrazolo[1,5-a]pyrimidin-3-yl)-5-fluoro-2-(((3S,4S)-4-fluoropiperidin-3-yl)amino)nicotinonitrile]
		< 0.17	< 0.17	COc1cn2ncc(-c3nc(N[C@H]4CNCC[C@@H]4F)c(C#N)cc3F)c2nc1C(C)(C)O [Compound 10, 5-fluoro-2-(((3S,4S)-4-fluoropiperidin-3-yl)amino)-6-(5-(2-hydroxypropan-2-yl)-6-methoxypyrazolo[1,5-a]pyrimidin-3-yl)nicotinonitrile]
		< 0.17	< 0.17	COc1cn2ncc(-c3nc(N[C@H]4CNCC[C@@H]4F)c(F)cc3F)c2nc1C(C)(C)O [Compound 13, 2-(3-(3,5-difluoro-6-(((3S,4S)-4-fluoropiperidin-3-yl)amino)pyridin-2-yl)-6-methoxypyrazolo[1,5-a]pyrimidin-5-yl)propan-2-ol]
